Where two headings read alike, the source gives them in different places.
Experiments:
[1] = test system: protozoans and other higher organisms; conditions: 2 and 4 mg/l/day Compound X, treated sludge relative to untreated
From the text: (§1) A series of semi-continuous chemostat reactors was constructed to simulate wastewater treatment processes.
(§2) The central part of the equipment is the biological chemostat reactor 1. The reactor vessel 2 is made of glass, with an internal volume of 10 liters and is fitted with pH 3 and dissolved oxygen 4 sensors and an air sparge 5. This contains the sludge, which is, essentially, a mass of typical wastewater treatment microorganisms. The reactor operates at an ambient temperature (approximately 20° C.).
(§3) Simulated wastewater 13 is contained in a separate vessel 6 and maintained at 4° C. to prevent microbial spoilage. It is transferred into the reactor via a supply line 7 and a peristaltic pump 8.
(§4) A recirculating line 9 is provided on the reactor comprising a length of flexible silicone tubing and a peristaltic pump 10. The peristaltic pump extracts the sludge from the reactor into the recirculation line. The candidate water-soluble biocide is introduced into this line 9 through a needle 11, which is fed by a syringe pump 12. Using this system it is possible to achieve “flash mixing” which ensures rapid contact of the water-soluble biocide with the sludge microorganisms. […]
(§5) Compound X was evaluated in the test. […] Two concentrations were evaluated: 2 and 4 milligrams per liter per day, as well as a control with no treatment by Compound X.

[2] = test system: filamentous bacteria in the sludge; conditions: 2 and 4 mg/l/day Compound X, flash mixing, vs untreated control, 52 day experiment
From the text: as §1, §2, §3, §4, §5

filamentous bacteria = conditions: for Observations (filamentous bacteria): sample 48 days after start up, magnification x220
Experimental: Samples were taken from the semi-continuous reactors described in Example 1, 48 days after the start up of the trial.
A sample of each of the Compound X concentrations tested in the reactors of Example 1 was evaluated in this test. Accordingly, samples with 2 and 4 milligrams per liter per day treatment of Compound X were tested, as well as a control with no treatment by Compound X.
The samples were observed through phase contrast microscope magnification×220.

## tetrakis(hydroxymethyl)phosphonium sulphate [Compound X]
[1]
  concentration of protozoans and other higher organisms in the sludge: significantly higher concentration of protozoans and other higher organisms
[2]
  filamentous bacteria in the sludge: substantially absent
Filamentous bacteria; 2 mg/l/day
  Observations (filamentous bacteria): No filamentous bacteria present,
Filamentous bacteria; 4 mg/l/day
  Observations (filamentous bacteria): No filamentous bacteria present,
Filamentous bacteria; two doses of 4 mg/l/day (4 mg/l dose on two consecutive days)
  reduction of filamentous bacteria and sludge settling: Reduction of filamentous bacteria and thus improved sludge settling
Filamentous bacteria; two doses of 4 mg/l/day, without further treatment
  level of filaments after treatment was stopped: remained low for more than one week

From US7638055B2, “Sludge quality” (Rhodia Operations, priority 2004, dated 2009)
